# According to ChEMBL document CHEMBL1201862, “PubChem BioAssay data set” (2004):
# Calls of active or inactive are those of the source.
# How the values were obtained:
# [1] = viability of uninfected HEp-2 cells – cell-based, HTS, cytotoxicity control for RSV inhibitor project, dose response (AID 2410); assay type: functional; conditions: human respiratory syncytial virus
# Large T antigen = Large T antigen (Simian virus 40, UniProt P03070); assay type: functional, Betapolyomavirus macacae;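 further: Confirmatory-stage PubChem screen for compounds that inhibit SV40 T antigen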
# Large T antigen, sequence (P03070 whole entry): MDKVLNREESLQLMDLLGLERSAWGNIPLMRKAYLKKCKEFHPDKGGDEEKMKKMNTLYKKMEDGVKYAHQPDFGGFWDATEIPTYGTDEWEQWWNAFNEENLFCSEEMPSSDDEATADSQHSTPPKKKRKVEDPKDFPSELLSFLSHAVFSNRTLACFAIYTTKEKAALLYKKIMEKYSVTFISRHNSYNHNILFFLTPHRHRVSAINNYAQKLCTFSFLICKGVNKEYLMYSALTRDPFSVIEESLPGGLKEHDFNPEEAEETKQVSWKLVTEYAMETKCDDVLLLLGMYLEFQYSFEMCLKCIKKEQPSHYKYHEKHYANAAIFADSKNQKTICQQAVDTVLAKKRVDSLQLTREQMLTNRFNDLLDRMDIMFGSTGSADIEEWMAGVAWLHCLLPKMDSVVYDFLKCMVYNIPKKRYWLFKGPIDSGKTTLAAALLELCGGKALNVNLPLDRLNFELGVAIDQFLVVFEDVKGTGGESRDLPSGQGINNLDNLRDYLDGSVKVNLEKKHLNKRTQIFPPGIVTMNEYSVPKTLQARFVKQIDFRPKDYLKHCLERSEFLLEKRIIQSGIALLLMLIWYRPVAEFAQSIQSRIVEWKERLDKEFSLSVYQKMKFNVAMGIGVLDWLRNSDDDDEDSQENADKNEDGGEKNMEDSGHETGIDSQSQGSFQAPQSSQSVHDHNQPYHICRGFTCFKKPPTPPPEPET
# [2] = molecular target: T1, Zinc finger protein mex-5 (Caenorhabditis elegans, UniProt Q9XUB2); assay: potency of MEX-5 RNA-binding blockers – biochemical, C. elegans, fluorescence polarization, dose response (AID 1960)
# T1 sequence (Q9XUB2 whole entry): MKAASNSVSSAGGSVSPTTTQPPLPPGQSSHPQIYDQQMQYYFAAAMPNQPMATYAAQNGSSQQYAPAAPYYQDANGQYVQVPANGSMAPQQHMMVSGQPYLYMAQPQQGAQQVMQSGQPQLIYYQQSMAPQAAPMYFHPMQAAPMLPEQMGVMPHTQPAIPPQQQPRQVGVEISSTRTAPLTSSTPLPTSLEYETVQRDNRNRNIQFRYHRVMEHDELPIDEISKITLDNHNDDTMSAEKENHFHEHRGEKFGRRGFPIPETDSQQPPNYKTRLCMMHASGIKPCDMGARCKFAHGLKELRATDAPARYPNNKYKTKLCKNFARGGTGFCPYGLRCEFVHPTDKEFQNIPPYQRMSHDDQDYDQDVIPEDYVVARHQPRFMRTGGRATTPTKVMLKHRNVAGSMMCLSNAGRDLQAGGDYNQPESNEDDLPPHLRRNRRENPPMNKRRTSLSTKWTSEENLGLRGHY
# Streptokinase A = molecular target: T2, Streptokinase A (Streptococcus pyogenes serotype M1, UniProt P10520); assay: viability-normalized secreted streptokinase activity reduction – plasminogen activation absorbance, OD405, dose response (AID 1914); assay type: functional, Streptococcus pyogenes M1 GAS;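 further: secreted streptokinase activity via plasminogen activation per viability signal from cell pellet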
# T2 sequence (P10520 whole entry): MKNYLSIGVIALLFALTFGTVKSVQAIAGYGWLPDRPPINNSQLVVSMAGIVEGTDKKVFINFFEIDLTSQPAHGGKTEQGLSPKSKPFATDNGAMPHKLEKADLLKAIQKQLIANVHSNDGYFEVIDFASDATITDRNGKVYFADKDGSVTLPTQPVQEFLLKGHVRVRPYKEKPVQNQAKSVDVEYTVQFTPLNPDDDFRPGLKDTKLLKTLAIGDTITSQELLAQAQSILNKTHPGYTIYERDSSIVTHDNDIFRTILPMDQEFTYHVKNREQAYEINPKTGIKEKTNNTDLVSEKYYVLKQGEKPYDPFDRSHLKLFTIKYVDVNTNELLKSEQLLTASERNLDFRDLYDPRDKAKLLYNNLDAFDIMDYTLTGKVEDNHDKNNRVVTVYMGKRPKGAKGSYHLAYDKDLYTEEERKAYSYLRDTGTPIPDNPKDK
# Streptococcus = assay: GAS UMAA2166 growth inhibition – luminescence, BacTiterGlo, counter-screen for streptokinase expression inhibitor project, dose response (AID 1915); assay type: functional, organism-based;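 further: potency for reduction of bacterial viability or growth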
# [3] = molecular target: T3, RNA-binding protein pos-1 (Caenorhabditis elegans, UniProt G5EF15); assay: disruptors of C. elegans POS-1 RNA interaction – biochemical, fluorescence polarization, dose response (AID 1964);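 further: purified POS-1 fused to maltose binding protein made in E. coli; potency of compounds blocking POS-1 binding to fluorescent RNA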
# T3 sequence (G5EF15 whole entry): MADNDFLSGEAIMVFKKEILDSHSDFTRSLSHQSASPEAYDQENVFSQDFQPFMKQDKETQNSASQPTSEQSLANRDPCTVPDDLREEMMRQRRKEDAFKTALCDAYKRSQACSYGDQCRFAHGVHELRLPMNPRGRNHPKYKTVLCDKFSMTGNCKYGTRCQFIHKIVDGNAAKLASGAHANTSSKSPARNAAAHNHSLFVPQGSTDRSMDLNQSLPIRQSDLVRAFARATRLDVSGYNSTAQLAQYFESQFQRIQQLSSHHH
# [4] = molecular target: T4, Carboxy-terminal domain RNA polymerase II polypeptide A small phosphatase 1 (Homo sapiens, UniProt Q9GZU7); assay: CTDSP1 inhibitors, concentration-response, biochemical, absorbance readout, ultra-high-throughput screen actives (AID 540297); assay type: functional
# T4 sequence (Q9GZU7 whole entry): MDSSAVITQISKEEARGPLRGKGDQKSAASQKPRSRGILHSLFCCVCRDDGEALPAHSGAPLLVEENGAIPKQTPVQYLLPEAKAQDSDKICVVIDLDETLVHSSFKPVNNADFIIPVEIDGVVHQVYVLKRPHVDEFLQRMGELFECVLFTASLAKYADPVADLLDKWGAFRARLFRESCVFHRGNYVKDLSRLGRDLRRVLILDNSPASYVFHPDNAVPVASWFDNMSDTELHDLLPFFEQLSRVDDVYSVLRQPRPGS
# [5] = system: Streptococcus sp. 'group A'; assay: Streptococcus pyogenes SK(-)GAS viability under kanamycin – luminescence, BacTiterGlo, confirmation, counter-screen for streptokinase expression inhibitor project, dose response (AID 1900); assay type: functional, organism-based
# [6] = molecular target: FAD-linked sulfhydryl oxidase ALR (Homo sapiens, UniProt P55789); assay: ALR-catalysed DTT oxidation blockers – biochemical, H2O2 detection, luminescence, cherry-pick, dose response (AID 493248)
# FAD-linked sulfhydryl oxidase ALR, sequence (P55789 whole entry): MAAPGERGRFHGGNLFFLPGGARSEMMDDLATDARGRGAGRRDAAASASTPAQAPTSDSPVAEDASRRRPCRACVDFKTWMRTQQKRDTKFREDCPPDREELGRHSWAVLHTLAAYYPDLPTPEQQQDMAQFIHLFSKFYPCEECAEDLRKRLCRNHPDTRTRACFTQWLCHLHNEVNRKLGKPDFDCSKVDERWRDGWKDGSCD
# [7] = blockers of CRF-binding protein–CRF-R2 complex – cell-based, uHTS hits, 384-well, dose response (AID 651639); assay type: functional, Homo sapiens; conditions: read-out: IC50_Mean
# HEK293 = assay: EBV LMP1 TES2 canonical NF-kB signalling blockers – cell-based, HEK293, luciferase, cherry-pick, dose response (AID 588343); assay type: functional; conditions: Homo sapiens
# Vero = assay: viability of Vero cells under compound – cytotoxicity control for flavivirus capping enzyme inhibitors (AID 588742); assay type: functional; conditions: Chlorocebus sabaeus
# [8] = molecular target: T5, Polyadenylate-binding protein 1 (Homo sapiens, UniProt P11940); assay: MLLE binding blockers, Cy5 peptide tracer – biochemical, fluorescence polarization, Cy5-PAM2 peptide, secondary, miRNA deadenylation inhibitor project, dose response (AID 602260); assay type: functional; conditions: read-out: IC50_Mean
# T5 sequence (P11940 whole entry, the tested form may be a part): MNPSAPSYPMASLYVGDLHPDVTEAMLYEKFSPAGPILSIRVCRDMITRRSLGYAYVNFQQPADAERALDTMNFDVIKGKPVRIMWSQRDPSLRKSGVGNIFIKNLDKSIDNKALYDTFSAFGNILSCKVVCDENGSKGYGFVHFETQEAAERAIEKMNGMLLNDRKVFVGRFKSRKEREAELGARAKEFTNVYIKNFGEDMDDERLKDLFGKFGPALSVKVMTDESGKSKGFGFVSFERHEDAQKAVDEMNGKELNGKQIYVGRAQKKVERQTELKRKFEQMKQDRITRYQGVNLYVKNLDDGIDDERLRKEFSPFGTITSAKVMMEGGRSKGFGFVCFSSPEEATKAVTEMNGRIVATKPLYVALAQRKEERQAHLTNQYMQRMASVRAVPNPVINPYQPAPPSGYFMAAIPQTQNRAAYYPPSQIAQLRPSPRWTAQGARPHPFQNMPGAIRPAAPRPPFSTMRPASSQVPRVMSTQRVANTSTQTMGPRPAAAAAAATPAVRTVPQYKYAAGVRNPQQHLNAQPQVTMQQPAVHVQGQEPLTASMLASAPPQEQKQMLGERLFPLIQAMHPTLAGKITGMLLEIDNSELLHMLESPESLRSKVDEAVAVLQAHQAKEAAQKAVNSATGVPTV
# [9] = molecular target: T5, Polyadenylate-binding protein 1; assay: MLLE domain peptide-binding blockers, IC50 – biochemical, fluorescence polarization, FITC-PAM2 peptide, dose response (AID 602259); assay type: functional; conditions: read-out: IC50_Mean
# Genome polyprotein = Genome polyprotein (dengue virus type 2, UniProt P29990); assay: flavivirus cap methylation enzyme inhibition – biochemical, confirmation dose response, primary screen (AID 588689); assay type: functional
# Genome polyprotein, sequence (P29990 2492-3391 limits assumed): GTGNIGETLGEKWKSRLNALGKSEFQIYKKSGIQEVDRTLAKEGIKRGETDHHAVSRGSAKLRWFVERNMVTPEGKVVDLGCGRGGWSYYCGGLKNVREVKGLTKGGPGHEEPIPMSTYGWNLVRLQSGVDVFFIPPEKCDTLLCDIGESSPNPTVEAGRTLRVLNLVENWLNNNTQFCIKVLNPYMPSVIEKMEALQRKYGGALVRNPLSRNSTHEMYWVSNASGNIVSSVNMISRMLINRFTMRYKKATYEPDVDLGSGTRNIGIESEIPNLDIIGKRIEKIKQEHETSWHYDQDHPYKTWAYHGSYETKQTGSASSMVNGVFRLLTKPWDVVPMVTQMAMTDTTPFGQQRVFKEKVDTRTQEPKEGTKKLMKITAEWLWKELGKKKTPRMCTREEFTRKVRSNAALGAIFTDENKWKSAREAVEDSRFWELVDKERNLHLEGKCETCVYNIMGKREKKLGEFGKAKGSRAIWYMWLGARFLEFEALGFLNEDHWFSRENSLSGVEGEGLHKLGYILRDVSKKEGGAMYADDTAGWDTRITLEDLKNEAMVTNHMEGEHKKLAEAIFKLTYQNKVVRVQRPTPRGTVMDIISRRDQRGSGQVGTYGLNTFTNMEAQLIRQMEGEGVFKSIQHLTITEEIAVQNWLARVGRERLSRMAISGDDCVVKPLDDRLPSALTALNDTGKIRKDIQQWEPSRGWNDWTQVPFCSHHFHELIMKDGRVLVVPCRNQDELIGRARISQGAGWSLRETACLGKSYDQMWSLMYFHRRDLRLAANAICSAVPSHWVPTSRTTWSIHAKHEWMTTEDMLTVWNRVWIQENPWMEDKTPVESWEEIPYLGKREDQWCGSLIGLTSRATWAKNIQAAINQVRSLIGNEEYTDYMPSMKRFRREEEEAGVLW
# [10] = molecular target: T6, Histone-lysine N-methyltransferase NSD2 (Homo sapiens, UniProt O96028); assay type: biochemical
# T6 sequence (O96028 whole entry): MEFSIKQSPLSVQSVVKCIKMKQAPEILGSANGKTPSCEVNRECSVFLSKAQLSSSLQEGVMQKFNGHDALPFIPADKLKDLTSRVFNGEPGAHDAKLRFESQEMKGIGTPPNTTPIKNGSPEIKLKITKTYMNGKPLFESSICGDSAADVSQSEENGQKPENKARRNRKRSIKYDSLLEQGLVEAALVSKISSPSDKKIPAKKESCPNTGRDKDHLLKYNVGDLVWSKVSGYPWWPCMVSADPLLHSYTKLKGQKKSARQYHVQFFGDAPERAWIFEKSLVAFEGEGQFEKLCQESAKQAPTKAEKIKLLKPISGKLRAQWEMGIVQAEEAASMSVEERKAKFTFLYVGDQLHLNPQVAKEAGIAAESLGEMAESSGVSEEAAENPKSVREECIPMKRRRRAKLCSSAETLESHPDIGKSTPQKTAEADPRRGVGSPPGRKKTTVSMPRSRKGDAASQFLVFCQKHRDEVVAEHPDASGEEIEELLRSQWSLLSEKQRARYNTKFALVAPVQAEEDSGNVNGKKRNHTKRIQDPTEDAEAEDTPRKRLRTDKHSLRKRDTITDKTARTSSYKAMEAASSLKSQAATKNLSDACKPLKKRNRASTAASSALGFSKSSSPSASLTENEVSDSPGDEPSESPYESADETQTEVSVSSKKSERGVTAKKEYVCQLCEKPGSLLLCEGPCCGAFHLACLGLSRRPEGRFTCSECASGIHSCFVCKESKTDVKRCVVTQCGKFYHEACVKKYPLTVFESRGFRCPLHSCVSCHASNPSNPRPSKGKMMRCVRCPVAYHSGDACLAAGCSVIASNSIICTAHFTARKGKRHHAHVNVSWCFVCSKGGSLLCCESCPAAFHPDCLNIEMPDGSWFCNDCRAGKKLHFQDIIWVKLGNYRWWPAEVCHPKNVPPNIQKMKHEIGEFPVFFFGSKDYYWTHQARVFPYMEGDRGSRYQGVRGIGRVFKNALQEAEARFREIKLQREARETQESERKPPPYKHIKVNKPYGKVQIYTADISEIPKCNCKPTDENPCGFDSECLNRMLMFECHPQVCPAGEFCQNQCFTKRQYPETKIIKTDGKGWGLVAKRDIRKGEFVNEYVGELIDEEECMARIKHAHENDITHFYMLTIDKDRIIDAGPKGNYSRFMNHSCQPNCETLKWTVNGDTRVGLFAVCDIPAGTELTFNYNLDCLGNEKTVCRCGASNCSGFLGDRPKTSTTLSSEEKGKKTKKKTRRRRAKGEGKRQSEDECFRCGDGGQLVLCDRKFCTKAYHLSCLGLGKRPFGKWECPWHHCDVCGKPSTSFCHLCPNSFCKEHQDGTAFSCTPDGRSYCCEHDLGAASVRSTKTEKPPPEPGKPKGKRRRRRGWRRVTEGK
# [11] = reduction of Shn3 3'UTR-driven luciferase in osteoblasts – cell-based, Clone20 osteoblasts, firefly luciferase, cherry-picked, dose response (AID 624132); assay type: functional;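 further: firefly luciferase luminescence from reporter carrying the Shn3 3'UTR in osteoblasts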
# [12] = loss of viability in HepG2 cells – cell-based, CellTiter-Glo, cherry-picked, cytotoxicity control for Shn3 inhibitor project, dose response (AID 624134); assay type: functional
# Cytochrome P450 3A4 = Cytochrome P450 3A4 (Homo sapiens, UniProt P08684);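 further: CYP3A4 tested as one member of a cytochrome P450 panel screen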
# Cytochrome P450 3A4, sequence (P08684 whole entry): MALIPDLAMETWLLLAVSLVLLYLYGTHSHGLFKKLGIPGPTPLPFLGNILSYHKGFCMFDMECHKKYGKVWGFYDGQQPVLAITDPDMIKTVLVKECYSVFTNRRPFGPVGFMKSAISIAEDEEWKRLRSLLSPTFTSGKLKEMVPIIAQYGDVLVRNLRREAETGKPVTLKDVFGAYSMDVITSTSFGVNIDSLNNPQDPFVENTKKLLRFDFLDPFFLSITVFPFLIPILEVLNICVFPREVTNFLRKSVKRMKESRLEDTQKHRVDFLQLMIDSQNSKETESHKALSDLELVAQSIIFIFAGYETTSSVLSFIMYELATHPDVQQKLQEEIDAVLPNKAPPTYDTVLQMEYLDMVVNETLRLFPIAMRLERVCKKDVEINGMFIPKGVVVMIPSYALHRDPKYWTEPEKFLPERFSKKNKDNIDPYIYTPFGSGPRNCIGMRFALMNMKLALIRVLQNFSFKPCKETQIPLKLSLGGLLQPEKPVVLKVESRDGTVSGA
# [13] = non-specific 3'UTR reporter inhibition in Clone20-Shn3RL – cell-based, Renilla luciferase, cherry-picked, counter-screen for Shn3 inhibitor project, dose response (AID 624133); assay type: functional
# [14] = Trypanosoma cruzi growth suppression in host cells – NIH3T3 host cells, beta-gal luminescence, confirmation (AID 2044); assay type: functional, cell-based;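 further: intracellular parasites grown in NIH/3T3 mouse fibroblasts as host cells; luminescent beta-galactosidase reporter signal from transgenic T. cruzi replicating inside host cells; inhibitors lower the luminescence signal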
# [15] = NIH-3T3 fibroblast cytotoxicity, dose response, cytotoxicity control, cell-based, fluorescence, Alamar Blue, secondary assay (AID 2327); assay type: functional;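 further: NIH-3T3 mouse fibroblasts cultured with fluconazole at 8 µg/mL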
# [16] = NIH3T3 cell viability loss – ATP luminescence, mouse fibroblasts, counter-screen, dose response (AID 2010); assay type: functional, cell-based;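 further: cells exposed to compound for about 90 hours before reading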
# [17] = fluconazole-exposed Candida albicans growth modulators – fluorescence, retest, confirmation (AID 2467); assay type: functional, cell-based
# [18] = molecular target: Heat shock protein HSP 90-alpha (Homo sapiens, UniProt P07900); assay type: functional, organism-based
compound,measurement,setting,value
CCOC(=O)c1[nH]nc(-c2cc(CC)c(O)cc2O)c1-c1cscn1,CC50,[1],22.6 µM (active)
same,IC50,Large T antigen,20.6 µM (active)
N#Cc1ccccc1CN1C(=O)S/C(=C/c2cccn2-c2ccc(C(=O)O)cc2)C1=O,EC50,[2],44 µM (active)
same,EC50,Streptokinase A,> 150 µM (not active)
same,EC50,Streptococcus,61.7 µM (active)
same,EC50,[3],> 300 µM (not active)
same,IC50,[4],5.85 µM (active)
same,EC50,[5],15.8 µM (active)
same,AC50,[6],86.3 µM (active)
N#CN=C(Nc1cccc(F)c1)SCc1ccccc1,IC50,[7],> 20 µM (inactive)
Cc1nc2sc(C(N)=O)c(N)c2c2c1CCCC2,AC50,HEK293,10.9 µM (active)
COc1cc(/C=C2/C(=O)ON=C2C)ccc1OCc1cccc(F)c1,CC50,Vero,38.2 µM (active)
same,IC50,[8],> 66 µM (inactive)
same,IC50,[9],42.6 µM (inactive)
same,IC50,Genome polyprotein,24.1 µM (active)
N=C1/C(=C\c2ccc(Br)o2)C(=O)N=C2SC(CC(=O)N3CCOCC3)=NN12,IC50,[4],18.3 µM (active)
same,AC50,[10],> 20 µM (inactive)
CCOc1ccccc1N=C(S)N1CCN(c2ccc(O)cc2)CC1,IC50,Large T antigen,6.28 µM (active)
O=S(=O)(c1ccccc1)N1CCN(c2cc(-c3ccccc3)nc3ncnn23)CC1,AC50,[11],1.12 µM (active)
same,AC50,[12],48.1 µM (active)
same,AC50,Cytochrome P450 3A4,14.1 µM (inconclusive)
same,AC50,HEK293,3.23 µM (active)
same,AC50,[13],5.98 µM (active)
CCC[n+]1c2ccccc2cc2ccccc21,EC50,[14],0.157 µM (active)
same,EC50,[15],> 160 µM (inactive)
same,IC50,Large T antigen,46.2 µM (active)
same,EC50,[16],> 60 µM (not active)
same,EC50,[17],0.672 µM (active)
CC(=O)c1sc(C(=O)O)c(-c2ccco2)c1-c1ccco1,IC50,[4],15.5 µM (active)
CC(C)C1Nc2c(O)cc(Cl)c([N+](=O)[O-])c2C2C=CCC21 (configuration not stated),EC50,[2],58.5 µM (active)
same,CC50,Vero,27.8 µM (active)
same,EC50,Streptokinase A,> 150 µM (not active)
same,EC50,Streptococcus,6.36 µM (active)
same,AC50,[18],8.49 µM (active)
same,EC50,[15],21.9 µM (inconclusive)
same,EC50,[3],> 300 µM (not active)
same,EC50,[5],3.07 µM (active)
same,EC50,[17],0.227 µM (active)
same,IC50,Genome polyprotein,68.9 µM (active)
COc1cc(N=C(S)NCCC(c2ccccc2)c2ccccc2)c(OC)cc1Cl,IC50,[7],> 20 µM (inactive)
CCOC(=O)c1c2c(n(-c3ccc(OC)cc3)c1C)C(=O)C(=O)c1ccccc1-2,AC50,[11],3.15 µM (active)
same,CC50,Vero,2.89 µM (active)
same,AC50,[12],3.74 µM (active)
same,AC50,[13],3 µM (active)
same,IC50,Genome polyprotein,47 µM (active)
C/C(=N\NC(=O)c1ccccc1O)c1ccc(NC(=O)c2ccccc2)cc1,IC50,[4],7.56 µM (active)
O=C(/C=C/c1ccco1)NCC(=O)N/N=C/c1ccc([N+](=O)[O-])cc1,IC50,[4],5.25 µM (active)
